These results are taken from patent US12285407B2, “Bis-indolylmethane derivatives and uses thereof” (The University of The West Indies, priority 2018, dated 2025).

Structures are written as SMILES. Converted amounts (≈) assume the structure as drawn. Where only a bound is given, the exact number is not on record here.

Holding throughout (format): cell-based
Assay [1] relates to Enterobacter cloacae. The experiment in a line: Adjuvant broth microdilution (antibiotic MIC with SP-BIM at 50 μg/mL). Particulars: antibiotic alone.
The test system of assay [2] is clinical strains of Enterococcus faecium. The assay can be described thus: Kirby Bauer disc diffusion susceptibility profile. Particulars: for Zone of clearance: 35° C., 24 hours, average n=3; for Interpretive standard (resistant/susceptible): zones vs EUCAST breakpoints (Table 31). For orientation: A growth-free zone around the sample is the usual read-out of agar diffusion tests.

Assay [3] deals with Escherichia coli O157:H7. The experiment in a line: Rescue concentrations of SP-BIM that reactivate antibiotic. Particulars: Escherichia coli, read-out: MIC (single agent).
Assay [4] deals with Pseudomonas aeruginosa. The assay can be described thus: Adjuvant broth microdilution (antibiotic MIC with SP-BIM at 50 μg/mL). Particulars: antibiotic alone. (In general: Dilution methods test growth across graded concentrations, often in twofold steps.)

As a reminder, the MIC is the lowest concentration that inhibits growth of the organism. For `CN[C@H](CC(C)C)C(=O)N[C@H]1C(=O)N[C@@H](CC(N)=O)C(=O)N[C@H]2C(=O)N[C@H]3C(=O)N[C@H](C(=O)N[C@H](C(=O)O)c4cc(O)cc(O)c4-c4cc3ccc4O)[C@H](O)c3ccc(c(Cl)c3)Oc3cc2cc(c3O[C@@H]2O[C@H](CO)[C@@H](O)[C@H](O)[C@H]2O[C@H]2C[C@](C)(N)[C@H](O)[C@H](C)O2)Oc2ccc(cc2Cl)[C@H]1O` [Vancomycin, vancomycin], the “MIC of antibiotic, No Compound” value in assay [1] and in assay [4] was above 250 µg/mL throughout. The Zone of clearance in assay [2] (E. faecium strain 15134) was 12 mm; in assay [2] (E. faecium strain 21024) it was 9 mm; in assay [2] (E. faecium strain 21955), 15 mm; in assay [2] (E. faecium strain 22003) it was 16 mm; in assay [2] (E. faecium strain 22870), 10 mm; in assay [2] (E. faecium strain 23227) it was 9 mm. Also, the Zone of clearance in assay [2] (E. faecium strain 23230) is on record as 5 mm; in assay [2] (E. faecium strain 23668) it was 10 mm; in assay [2] (E. faecium strain 24169), 10 mm; in assay [2] (E. faecium strain RC63), 8 mm. The “Interpretive standard (resistant/susceptible)” value in assay [2] (E. faecium strain 15134) is listed as “S”; in assay [2] (E. faecium strain 21024), “R”; in assay [2] (E. faecium strain 21955) it was “S”; in assay [2] (E. faecium strain 22003) it was “S”; in assay [2] (E. faecium strain 22870) it was “R”; in assay [2] (E. faecium strain 23227), “R”. Further, the “Interpretive standard (resistant/susceptible)” value in assay [2] (E. faecium strain 23230), in assay [2] (E. faecium strain 23668), in assay [2] (E. faecium strain 24169) and in assay [2] (E. faecium strain RC63) was “R” throughout. Moreover, the MIC in assay [3] came out at 250 µg/mL (≈ 173 µM).
